Measurements reported in patent US20090298814A1, “Novel salts of conjugated psychotropic drugs and processes of preparing same” (RAMOT AT TEL AVIV UNIVERISTY LTD, priority 2005, published 2009).

Assays:
Format in all cases: physicochemical
[1] = Stability of the 1-napsylate salt; conditions: two weeks
[2] = Water content of AN-168 by Karl Fischer (KF) titration
Protocol: (§1) Water absorption and content measurements were carried out using a Karl Fischer (KF) titrator. Karl Fischer titration is a classic method in analytical chemistry that uses calometric titration to determine the moisture content of a sample, which is specific to water. The titration reaction taking place in the presence of a base and 50:50 methanol:dichloromethane as a titration solvent.
The Karl Fischer chemical reaction takes place between iodine and water with the reactants being in a 1 to 1 ratio between iodine and water.
(§2) The accurately weighted samples (near 100 mg) of the tested compound were placed in the titrator to determine the amount of sample required for measuring 10-250 μg of water, and the water content was calculated accordingly.

[3] = Stability of AN-168 dry salt by HPLC at 5, 20 and 40° C.
Protocol: (§3) HPLC analyses were performed on a Water 2695 Separations Module, using a Luna C18 (2) 50 mm×4.6 mm×3 um column, a 5 μl injection volume and a 2487 dual wavelength detector under the following instrumental conditions: Mobile phase A: 0.1% formic acid; Mobile phase B: acetonitrile; Flow rate: 0.5 ml per minute; Mobile phase gradient: 0.0 minutes 90% A, 10% B, 14.0 minutes 20% A, 80% B, 15.0 minutes 90% A, 10% B and 20.0 minutes 90% A, 10% B; Run time: 20 minutes; Detection: UV at 254 nm; Column temperature: 40° C.
To determine the stability of the HCl salt of the GABA conjugate (AN-168), prepared according to the procedure described in Example 2 above, three samples of the salt were studied by HPLC analyses. Thus, samples of AN-168 as dry salt were kept at 5° C., 20° C. and 40° C. over a period of 24 day and were analyzed by HPLC for determining the appearance of degradation products.

[4] = Stability of the free base of the conjugate by HPLC at 20 and 40° C.
Protocol: as §3
The stability of neat free base of the chemical conjugate was determined by performing an HPLC analysis daily during a period of 24 days and determining the appearance of its degradation products perphenazine and GABA. Samples of the neat free base of the conjugate were collected after deprotection of AN-197 with TFA, as described in the preparation of the maleate and oxalate salts, using the general procedure described above in Example 9, were dissolved in the mobile phase solution which was used in the HPLC analysis (2:1 acetonitrile:water, pH 8) and were kept to either at 20° C. or at 40° C.

[5] = Chemical stability of the oxalate salt by HPLC, open container; conditions: for perphenazine content (HPLC) / purity of the salt (HPLC): open container at room temperature
Protocol: as §3
(§4) A sample of the oxalate addition salt was kept in an open container at room temperature for a five-week period (about 840 hours) and analyzed thereafter. The hygroscopicity of the oxalate salt was determined by following the water content of the salt using the Karl Fischer (KF) titration analysis method and the chemical stability of the oxalate salt was determined by following the appearance of the degradation product perphenazine in HPLC analysis.

[6] = Hygroscopicity of the oxalate salt by Karl Fischer titration; conditions: open container at room temperature
Protocol: as §1, §2, §4

[7] = sealed and open container at room temperature
[8] = dry salt kept at 5° C., 0 hours
[9] = dry salt kept at 5° C., 24 hours
[10] = dry salt kept at 5° C., 48 hours
[11] = dry salt kept at 5° C., 120 hours
[12] = dry salt kept at 5° C., 144 hours
[13] = dry salt kept at 5° C., 336 hours
[14] = dry salt kept at 5° C., 456 hours
[15] = dry salt kept at 5° C., 504 hours
[16] = dry salt kept at 5° C., 576 hours
[17] = dry salt kept at 20° C., 0 hours
[18] = dry salt kept at 20° C., 24 hours
[19] = dry salt kept at 20° C., 48 hours
[20] = dry salt kept at 20° C., 120 hours
[21] = dry salt kept at 20° C., 144 hours
[22] = dry salt kept at 20° C., 336 hours
[23] = dry salt kept at 20° C., 456 hours
[24] = dry salt kept at 20° C., 504 hours
[25] = dry salt kept at 20° C., 576 hours
[26] = dry salt kept at 40° C., 0 hours
[27] = dry salt kept at 40° C., 24 hours
[28] = dry salt kept at 40° C., 48 hours
[29] = dry salt kept at 40° C., 120 hours
[30] = dry salt kept at 40° C., 144 hours
[31] = dry salt kept at 40° C., 336 hours
[32] = dry salt kept at 40° C., 456 hours
[33] = dry salt kept at 40° C., 504 hours
[34] = dry salt kept at 40° C., 576 hours
[35] = in HPLC mobile phase (2:1 acetonitrile:water, pH 8), kept at 20° C., 0 hours
[36] = in HPLC mobile phase (2:1 acetonitrile:water, pH 8), kept at 40° C., 0 hours
[37] = in HPLC mobile phase, kept at 20° C., 24 hours
[38] = in HPLC mobile phase, kept at 20° C., 168 hours
[39] = in HPLC mobile phase, kept at 20° C., 336 hours
[40] = in HPLC mobile phase, kept at 20° C., 504 hours
[41] = in HPLC mobile phase, kept at 20° C., 576 hours
[42] = in HPLC mobile phase, kept at 40° C., 24 hours
[43] = in HPLC mobile phase, kept at 40° C., 168 hours
[44] = in HPLC mobile phase, kept at 40° C., 336 hours
[45] = in HPLC mobile phase, kept at 40° C., 504 hours
[46] = in HPLC mobile phase, kept at 40° C., 576 hours
[47] = end of five-week period (about 840 hours)

## NCCCC(=O)OCCN1CCN(CCCN2c3ccccc3Sc3ccc(Cl)cc32)CC1.O=S(=O)(O)c1cccc2ccccc12.O=S(=O)(O)c1cccc2ccccc12.O=S(=O)(O)c1cccc2ccccc12 [1-napsylate salt]
[1]; [7]
  degradation to perphenazine: minimal degradation
  stability in words: stable
[1]; stored at both −20° C. and 0° C. under nitrogen in a closed container
  stability in words: highly stable

## Cl.NCCCC(=O)OCCN1CCN(CCCN2c3ccccc3Sc3ccc(Cl)cc32)CC1 [AN-168, Perphenazine 4-Aminobutyrate Hydrochloride]
[2]; final product
  hygroscopicity: hygroscopic
[2]; final product, recrystallized
  water content (KF): 1.05 % weight/weight
[2]; repeated procedure with additional 2 hours at 40° C.
  water content (KF): 12.5 % weight/weight
[3]; [8]
  AN-168 % area: 98.64 % area
  Perphenazine % area: 1.36 % area
[3]; [9]
  AN-168 % area: 98.57 % area
  Perphenazine % area: 1.43 % area
[3]; [10]
  AN-168 % area: 98.52 % area
  Perphenazine % area: 1.48 % area
[3]; [11]
  AN-168 % area: 98.40 % area
  Perphenazine % area: 1.60 % area
[3]; [12]
  AN-168 % area: 98.13 % area
  Perphenazine % area: 1.87 % area
[3]; [13]
  AN-168 % area: 97.21 % area
  Perphenazine % area: 2.03 % area
[3]; [14]
  AN-168 % area: 97.95 % area
  Perphenazine % area: 2.05 % area
[3]; [15]
  AN-168 % area: 97.15 % area
  Perphenazine % area: 2.85 % area
[3]; [16]
  AN-168 % area: 96.14 % area
  Perphenazine % area: 3.49 % area
[3]; [17]
  AN-168 % area: 98.64 % area
  Perphenazine % area: 1.36 % area
[3]; [18]
  AN-168 % area: 98.42 % area
  Perphenazine % area: 1.58 % area
[3]; [19]
  AN-168 % area: 98.31 % area
  Perphenazine % area: 1.69 % area
[3]; [20]
  AN-168 % area: 97.68 % area
  Perphenazine % area: 2.32 % area
[3]; [21]
  AN-168 % area: 97.26 % area
  Perphenazine % area: 2.74 % area
[3]; [22]
  AN-168 % area: 96.26 % area
  Perphenazine % area: 3.74 % area
[3]; [23]
  AN-168 % area: 95.58 % area
  Perphenazine % area: 4.51 % area
[3]; [24]
  AN-168 % area: 94.60 % area
  Perphenazine % area: 5.40 % area
[3]; [25]
  AN-168 % area: 93.80 % area
  Perphenazine % area: 5.87 % area
[3]; [26]
  AN-168 % area: 98.64 % area
  Perphenazine % area: 1.36 % area
[3]; [27]
  AN-168 % area: 97.97 % area
  Perphenazine % area: 2.03 % area
[3]; [28]
  AN-168 % area: 97.70 % area
  Perphenazine % area: 2.30 % area
[3]; [29]
  AN-168 % area: 96.95 % area
  Perphenazine % area: 3.05 % area
[3]; [30]
  AN-168 % area: 97.03 % area
  Perphenazine % area: 2.97 % area
[3]; [31]
  AN-168 % area: 96.69 % area
  Perphenazine % area: 3.31 % area
[3]; [32]
  AN-168 % area: 95.55 % area
  Perphenazine % area: 4.45 % area
[3]; [33]
  AN-168 % area: 95.62 % area
  Perphenazine % area: 3.92 % area
[3]; [34]
  AN-168 % area: 95.55 % area
  Perphenazine % area: 4.06 % area
[3]; over time, at each of the tested temperatures (5, 20, 40° C.)
  stability in words: degraded into perphenazine and GABA and/or underwent trans-esterification to perphenazine and 2-pyrrolidinone

## NCCCC(=O)OCCN1CCN(CCCN2c3ccccc3Sc3ccc(Cl)cc32)CC1 [Free base]
[4]; at both temperatures (20° C. and 40° C.)
  stability in words: highly unstable
[4]; first 24 hours, sample kept at 20° C.
  relative peak area degradation to perphenazine: approximately 5%
[4]; first 24 hours, sample kept at 40° C.
  free base degraded to perphenazine: more than 20%
[4]; [35]
  Free base % area: 98.50 % area
  Perphenazine % area: 1.50 % area
[4]; [36]
  Free base % area: 98.50 % area
  Perphenazine % area: 1.50 % area
[4]; [37]
  Free base % area: 95.05 % area
  Perphenazine % area: 4.95 % area
[4]; [38]
  Free base % area: 74.71 % area
  Perphenazine % area: 25.29 % area
[4]; [39]
  Free base % area: 61.63 % area
  Perphenazine % area: 38.37 % area
[4]; [40]
  Free base % area: 53.35 % area
  Perphenazine % area: 46.65 % area
[4]; [41]
  Free base % area: 47.23 % area
  Perphenazine % area: 52.77 % area
[4]; [42]
  Free base % area: 78.74 % area
  Perphenazine % area: 21.26 % area
[4]; [43]
  Free base % area: 20.09 % area
  Perphenazine % area: 79.91 % area
[4]; [44]
  Free base % area: 6.12 % area
  Perphenazine % area: 93.88 % area
[4]; [45]
  Free base % area: 5.52 % area
  Perphenazine % area: 94.48 % area
[4]; [46]
  Free base % area: 3.93 % area
  Perphenazine % area: 96.07 % area

## NCCCC(=O)OCCN1CCN(CCCN2c3ccccc3Sc3ccc(Cl)cc32)CC1.O=C(O)C(=O)O.O=C(O)C(=O)O.O=C(O)C(=O)O [oxalate addition salt]
[5]; as compared to the HCl salt (AN-168)
  stability and hygroscopicity in words: more stable and less hygroscopic
[5]; [47]
  perphenazine content (HPLC): 1.71%
  purity of the salt (HPLC): 94.61%
[5]; initial
  perphenazine content (HPLC): 0.75%
  purity of the salt (HPLC): 98.05%
[6]; [47]
  water content (KF): 1.90 weight percents
[6]; initial
  water content (KF): 1.36 weight percents
